What was measured:
multiple myeloma [1] = conditions: 140 mg/m^2 of body-surface area intravenously; cited from earlier work
multiple myeloma [2] = assay: Single patient: 40 Gy ^153Sm-EDTMP, melphalan 200 mg/m^2 (Example 14); type: in vivo, human; conditions: present tense
Method: The patient, a person with an original diagnosis of multiple myeloma and diagnosed with primary refractory disease, is given a trace dose of ^153Sm-EDTMP, and the 24 hr whole body uptake is calculated. Based on dosimetry calculations a therapeutic dose is designed to deliver 40 Gy to the marrow. After the level of ^153Sm in the patient fell to ≦3.6 mCi, the patient receives a dose of 200 mg/m^2 of melphalan (I.V.). The patient's stem cells are reinfused two days after the melphalan, with G-CSF and antibiotics, as needed.

[3] = ^153Sm-EDTMP 30-50 Gy with melphalan up to 200 mg/m^2, response and urinary tract side effects; type: in vivo; conditions: 30-50 Gy with melphalan as high as 200 mg/m^2
[4] = test system: rats inoculated with murine myeloma cells; conditions: used with melphalan, followed by bone marrow transplant; cited from earlier work
[5] = Stability of ^166Ho-DOTMP with and without stabilizer: radiochemical purity by ITLC, CEC, HPLC (Example 15); type: physicochemical
Method: Samples of ^166Ho-DOTMP were prepared according to the procedure in Example 1 using ascorbic acid, 55 mg/mL, as the stabilizer. Identical samples were prepared without ascorbic acid. The solutions were analyzed for radiochemical purity after 1 hour, 6 hours, 10 hours, 24 hours, and 48 hours, using Instant Thin Layer Chromatography (ILTC), Cation Exchange Chromatography (CEC) and High Performance Liquid Chromatography (HPLC).

[6] = Biodistribution study of ^166Ho-DOTMP in rats (Example 16); type: in vivo, Sprague Dawley rats; conditions: rat, i.v.
Method: Sprague Dawley (S. D.) rats were injected intravenously (inj. i.v.) with a solution of ^166Ho-DOTMP (“Ho-DO”) containing ascorbic acid (asc) as a stabilizer. The animals were sacrificed and organs excised and counted in a radioactive well counter after decay to appropriate levels. Bone (femur) samples were counted and converted to a total bone percent injected dose using a factor of 25 times femur percent.
A second group of Sprague Dawley rats were injected intravenously with a solution of ^166Ho-DOTMP without having the stabilizer. The animals were sacrificed and organs excised and counted in a radioactive well counter after decay to appropriate levels. Bone (femur) samples were counted and converted to a total bone percent injected dose using a factor of 25 times femur percent.
FIG. 2 illustrates the data uptake base on the % injection dose. FIG. 3 illustrates the data uptake base on the % injection dose per gram(mass). FIG. 4 illustrates the data uptake base on the tissue/blood ratio. Abbreviations: Blo=blood; Tai=tail; Lun=lung; Liv=liver; Spl=spleen; Sto=stomach; Kid=kidneys; Int=intestines; Bon=bone; SD=standard deviation.

[7] = 40 Gy to marrow, melphalan 200 mg/m^2, one patient

Question: Which “patients with partial or complete remissions” value (multiple myeloma [1]) does the source give for `N[C@@H](Cc1ccc(N(CCCl)CCCl)cc1)C(=O)O` [melphalan, L-phenylalanine, 4-[bis(2-chloroethyl)amino]-] here?
Answer: Its value is “about 40%”.

Question: What does the source list for `O=P([O-])(O)CN(CCN(CP(=O)([O-])O)CP(=O)(O)O)CP(=O)([O-])O.[153Sm+3]` [^153Sm-EDTMP]?
Answer: days post stem cell transplant to neutrophil engraftment (ANC >500) (multiple myeloma [2]; [7]): Fourteen; days post transplant to platelet engraftment (>20,000) (multiple myeloma [2]; [7]): twenty; response (multiple myeloma [2]; five months post treatment, one patient): complete remission; total response rates [3]: > 90%; urinary tract side effects [3]: without significant urinary tract side effects; survival [4]: improves survival

Question: For `O=P([O-])(O)CN1CCN(CP(=O)([O-])O)CCN(CP(=O)(O)O)CCN(CP(=O)([O-])O)CC1.[166Ho+3]` [Ho-DO only], which “radiochemical purity, CEC” value ([5]; 1 hr) is on record?
Answer: The value was 99.0.

Question: And the “radiochemical purity, HPLC” value ([5]; 1 hr)?
Answer: Its value is 100.

Question: And the “radiochemical purity, ITLC” value ([5]; 1 hr)?
Answer: Its value is 99.2.

Question: And the “radiochemical purity, CEC” value ([5]; 6 hrs)?
Answer: The value was 97.8.

Question: What about the “radiochemical purity, HPLC” value ([5]; 6 hrs) of the same molecule?
Answer: The value was 95.4.

Question: What about the “radiochemical purity, ITLC” value ([5]; 6 hrs) of the same molecule?
Answer: Its value is 98.1.

Question: What about the “radiochemical purity, CEC” value ([5]; 10 hrs) of the same molecule?
Answer: The value was 97.8.

Question: What about the “radiochemical purity, HPLC” value ([5]; 10 hrs) of the same molecule?
Answer: Its value is 94.9.

Question: And the “radiochemical purity, ITLC” value ([5]; 10 hrs)?
Answer: The value was 97.5.

Question: And the “radiochemical purity, CEC” value ([5]; 24 hrs)?
Answer: Its value is 97.2.

Question: What about the “radiochemical purity, HPLC” value ([5]; 24 hrs) of the same molecule?
Answer: Its value is 85.8.

Question: What about the “radiochemical purity, ITLC” value ([5]; 24 hrs) of the same molecule?
Answer: The value was 97.6.

Question: What about the “radiochemical purity, CEC” value ([5]; 48 hrs) of the same molecule?
Answer: The value was 97.1.

Question: And the “radiochemical purity, ITLC” value ([5]; 48 hrs)?
Answer: The value was 96.5.

Question: What about the “Percent Injection Dose, Blood” value [6] of the same molecule?
Answer: Its value is 0.29 Percent Injection Dose.

Question: What about the “Percent Injection Dose, Intestine” value [6] of the same molecule?
Answer: The value was 3.81 Percent Injection Dose.

Question: And the “Percent Injection Dose, Kidney” value [6]?
Answer: The value was 0.72 Percent Injection Dose.

Question: And the “Percent Injection Dose, Liver” value [6]?
Answer: Its value is 2.40 Percent Injection Dose.

Question: And the “Percent Injection Dose, Lung” value [6]?
Answer: Its value is 0.00 Percent Injection Dose.

Question: And the “Percent Injection Dose, Spleen” value [6]?
Answer: Its value is 0.56 Percent Injection Dose.

Question: What about the “Percent Injection Dose, Stomach” value [6] of the same molecule?
Answer: Its value is 0.20 Percent Injection Dose.

Question: What about the “Percent Injection Dose, Tail” value [6] of the same molecule?
Answer: Its value is 3.21 Percent Injection Dose.

Question: And the “Percent Injection Dose/Gram, Blood” value [6]?
Answer: The value was 0.02 Percent Injection Dose/Gram.

Question: What about the “Percent Injection Dose/Gram, Intestine” value [6] of the same molecule?
Answer: The value was 0.23 Percent Injection Dose/Gram.

Question: And the “Percent Injection Dose/Gram, Kidney” value [6]?
Answer: The value was 0.38 Percent Injection Dose/Gram.

Question: And the “Percent Injection Dose/Gram, Liver” value [6]?
Answer: The value was 0.31 Percent Injection Dose/Gram.

Question: And the “Percent Injection Dose/Gram, Lung” value [6]?
Answer: Its value is 0.04 Percent Injection Dose/Gram.

Question: And the “Percent Injection Dose/Gram, Spleen” value [6]?
Answer: Its value is 1.03 Percent Injection Dose/Gram.

Question: What about the “Percent Injection Dose/Gram, Stomach” value [6] of the same molecule?
Answer: The value was 0.05 Percent Injection Dose/Gram.

Question: What about the “Percent Injection Dose/Gram, Tail” value [6] of the same molecule?
Answer: The value was 0.51 Percent Injection Dose/Gram.

Question: What about the “Tissue/Blood Ratio, Blood” value [6] of the same molecule?
Answer: The value was 1.00.

Question: And the “Tissue/Blood Ratio, Bone” value [6]?
Answer: Its value is 296.80.

Question: And the “Tissue/Blood Ratio, Intestine” value [6]?
Answer: Its value is 13.80.

Question: And the “Tissue/Blood Ratio, Kidney” value [6]?
Answer: Its value is 22.84.

Question: And the “Tissue/Blood Ratio, Liver” value [6]?
Answer: The value was 18.90.

Question: What about the “Tissue/Blood Ratio, Lung” value [6] of the same molecule?
Answer: The value was 2.34.

Question: What about the “Tissue/Blood Ratio, Spleen” value [6] of the same molecule?
Answer: The value was 62.09.

Question: And the “Tissue/Blood Ratio, Stomach” value [6]?
Answer: Its value is 3.24.

Question: And the “Tissue/Blood Ratio, Tail” value [6]?
Answer: The value was 31.33.

Question: And the “Percent Injection Dose/Gram, Bone” value ([6]; femur)?
Answer: Its value is 4.84 Percent Injection Dose/Gram.

Question: What about the “Percent Injection Dose, Bone” value ([6]; total bone = 25 times femur percent) of the same molecule?
Answer: The value was 50.05 Percent Injection Dose.

Reference: patent publication US7691985B2, “Skeletal-targeted radiation to treat bone-associated pathologies” (priority 1999, dated 2010)
